# Data as given in patent publication US20160024204A1, “METHODS FOR PRODUCING ANTIBODIES” (BRISTOL-MYERS SQUIBB COMPANY, priority 2013, published 2016).
# Tested on: P. pastoris
# Experiment: Effects of hydroxyurea on cell growth and antibody productivity in P. pastoris fermentation (Run 01MAY11)
# Conditions: 2.6-2.8 g/L hydroxyurea; for WB Titer (anti-IL-6 antibody): age 90 h, lots T5, T6 and T10
compound,measurement,setting,value
NC(=O)NO [Hydroxyurea],WCW reached and maintained by hydroxyurea treatment lots (control lots ~400 g/Kg),"after peak cell density at 30-40 hours, FIG. 8",~450 g/kg
same,WB Titer (anti-IL-6 antibody),,75.0 ± 2.7 Normalized
same,WB Titer (anti-IL-6 antibody),listed as hydroxyurea,75 Normalized
